Measured values from publication PMC9297976 (Journal of Applied Toxicology, 2021).

How the values were obtained:
medaka Esr1 (mEsr1) [1] = target: T1, medaka Esr1 (mEsr1) (Oryzias latipes, UniProt P50241); assay: Medaka Esr1 reporter gene assay, antagonist assay; assay type: cell-based, Japanese medaka (Oryzias latipes); conditions: E2 spiked at 1.0 nM (B); MAC = 1.0 × 10^−5 M
T1 sequence (P50241 1-620): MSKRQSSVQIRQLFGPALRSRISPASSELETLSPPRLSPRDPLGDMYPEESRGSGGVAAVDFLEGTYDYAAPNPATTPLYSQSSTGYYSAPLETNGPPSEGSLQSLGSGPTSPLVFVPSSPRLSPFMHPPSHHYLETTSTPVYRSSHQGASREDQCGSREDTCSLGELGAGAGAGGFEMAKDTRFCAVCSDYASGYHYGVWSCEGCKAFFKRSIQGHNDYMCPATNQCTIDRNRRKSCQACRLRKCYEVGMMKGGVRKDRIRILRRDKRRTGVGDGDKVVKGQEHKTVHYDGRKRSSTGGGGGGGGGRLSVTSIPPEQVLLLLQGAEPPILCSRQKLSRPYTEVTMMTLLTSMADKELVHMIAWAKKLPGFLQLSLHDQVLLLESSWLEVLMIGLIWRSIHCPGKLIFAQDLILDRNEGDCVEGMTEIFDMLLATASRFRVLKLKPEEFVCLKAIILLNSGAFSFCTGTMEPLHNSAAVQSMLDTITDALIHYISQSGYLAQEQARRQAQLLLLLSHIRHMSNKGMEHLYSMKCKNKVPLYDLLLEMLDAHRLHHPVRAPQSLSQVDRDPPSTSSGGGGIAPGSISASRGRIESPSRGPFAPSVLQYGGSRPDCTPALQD

medaka ARβ (mArβ) [2] = target: T2, medaka ARβ (mArβ) (Oryzias latipes, UniProt D1MV73); assay: Medaka ARβ reporter gene assay, antagonist assay; assay type: cell-based, Japanese medaka (Oryzias latipes)
T2 sequence (D1MV73 1-744): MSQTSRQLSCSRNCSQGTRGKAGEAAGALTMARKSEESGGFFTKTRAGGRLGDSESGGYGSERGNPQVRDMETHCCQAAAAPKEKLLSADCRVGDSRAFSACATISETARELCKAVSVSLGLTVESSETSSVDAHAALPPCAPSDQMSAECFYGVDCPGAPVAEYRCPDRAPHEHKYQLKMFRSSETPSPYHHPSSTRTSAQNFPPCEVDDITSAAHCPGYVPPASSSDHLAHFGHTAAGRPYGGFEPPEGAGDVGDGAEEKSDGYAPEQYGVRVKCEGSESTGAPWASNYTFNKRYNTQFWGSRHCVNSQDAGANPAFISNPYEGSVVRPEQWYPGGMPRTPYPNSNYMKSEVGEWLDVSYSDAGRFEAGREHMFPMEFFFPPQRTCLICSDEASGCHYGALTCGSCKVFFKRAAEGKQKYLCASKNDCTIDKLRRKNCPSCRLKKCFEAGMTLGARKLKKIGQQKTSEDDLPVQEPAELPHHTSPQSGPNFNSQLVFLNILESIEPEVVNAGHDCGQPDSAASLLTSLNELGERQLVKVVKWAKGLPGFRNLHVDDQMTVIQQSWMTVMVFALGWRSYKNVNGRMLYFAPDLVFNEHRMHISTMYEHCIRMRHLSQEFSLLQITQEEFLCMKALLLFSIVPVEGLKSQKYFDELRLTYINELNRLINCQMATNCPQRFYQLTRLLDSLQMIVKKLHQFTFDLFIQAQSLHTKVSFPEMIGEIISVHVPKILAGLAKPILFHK

medaka Esr1 (mEsr1) [3] = target: T1, medaka Esr1 (mEsr1); assay: cell-based; set-up: species or system Japanese medaka (Oryzias latipes)
[4] = system: Japanese medaka (Oryzias latipes); assay: Fish Short‐Term Reproduction Assay; assay type: in vivo; conditions: for GSI Female / GSI Male / HSI Female / HSI Male / Length Female / Length Male / Weight Female / Weight Male: completion of exposure
medaka ARβ (mArβ) [5] = target: T2, medaka ARβ (mArβ); assay: Medaka ARβ reporter gene assay, agonist assay; assay type: cell-based, Japanese medaka (Oryzias latipes); conditions: MAC = 1.0 × 10^−5 M
[6] = 1,009 ng/L measured, 21 d, sig. ↑ vs control
[7] = measured concentration 112 ng/L
[8] = measured concentration 272 ng/L
[9] = measured concentration 1,009 ng/L

Compound: C[C@]12CC[C@@H]3c4ccc(O)cc4CC[C@H]3[C@@H]1CCC2=O [Chemical E1, Estrone]
- Antagonistic activity (medaka Esr1 (mEsr1) [1]): NE (MAC = 1.0 × 10^−5 M)^(B)
- IC50 (medaka ARβ (mArβ) [2]; Antagonistic activity IC50, 11‐KT spiked at 50 nM (D)): 1500 nM
- In vitro positive: aAr (medaka ARβ (mArβ) [2]; mode of action in which IC50 or IC30 was obtained in RGA): aAr
- Antagonistic activity on mArβ (in words) (medaka ARβ (mArβ) [2]; transcriptional activity on mArβ by 11KT): inhibitory potency
- EC50 (medaka Esr1 (mEsr1) [3]): 5.4 nM
- In vitro positive: Esr (medaka Esr1 (mEsr1) [3]; mode of action in which EC50 or PC10 was obtained in RGA): Esr
- Fertility rate ([4]; 29 ng/L measured, 21 d): 92 ± 9.8%
- Hepatic VTG, female ([4]; 29 ng/L measured, 21 d): 652 ± 391 ng/mg‐liver
- Hepatic VTG, male ([4]; 29 ng/L measured, 21 d): 47.9 ± 54.0 ng/mg‐liver
- Mortality ([4]; 29 ng/L measured, 21 d): 0.0%
- Mortality, number of dead fish ([4]; 29 ng/L measured, 21 d): 0
- Number of fertilized eggs (per female per day) ([4]; 29 ng/L measured, 21 d): 17 ± 4.4
- Number of total eggs (per female per day) ([4]; 29 ng/L measured, 21 d): 18 ± 3.2
- SSC female (joint plates with papillary processes) ([4]; 29 ng/L measured, 21 d): 0 ± 0
- SSC male (joint plates with papillary processes) ([4]; 29 ng/L measured, 21 d): 97 ± 14
- Fertility rate ([4]; 112 ng/L measured, 21 d): 96 ± 1.3%
- Hepatic VTG, female ([4]; 112 ng/L measured, 21 d): 977 ± 274 ng/mg‐liver
- Hepatic VTG, male ([4]; 112 ng/L measured, 21 d): 382 ± 351 ng/mg‐liver
- Mortality ([4]; 112 ng/L measured, 21 d): 0.0%
- Mortality, number of dead fish ([4]; 112 ng/L measured, 21 d): 0
- Number of fertilized eggs (per female per day) ([4]; 112 ng/L measured, 21 d): 19 ± 2.4
- Number of total eggs (per female per day) ([4]; 112 ng/L measured, 21 d): 19 ± 2.6
- SSC female (joint plates with papillary processes) ([4]; 112 ng/L measured, 21 d): 0 ± 0
- SSC male (joint plates with papillary processes) ([4]; 112 ng/L measured, 21 d): 98 ± 25
- Fertility rate ([4]; 272 ng/L measured, 21 d): 96 ± 2.8%
- Hepatic VTG, female ([4]; 272 ng/L measured, 21 d): 1,017 ± 238 ng/mg‐liver
- Mortality ([4]; 272 ng/L measured, 21 d): 0.0%
- Mortality, number of dead fish ([4]; 272 ng/L measured, 21 d): 0
- Number of fertilized eggs (per female per day) ([4]; 272 ng/L measured, 21 d): 16 ± 2.5
- Number of total eggs (per female per day) ([4]; 272 ng/L measured, 21 d): 17 ± 2.5
- SSC female (joint plates with papillary processes) ([4]; 272 ng/L measured, 21 d): 0 ± 0
- SSC male (joint plates with papillary processes) ([4]; 272 ng/L measured, 21 d): 85 ± 14
- Hepatic VTG, male ([4]; 272 ng/L measured, 21 d, sig. ↑ vs control): 3,649 ± 665 ng/mg‐liver
- Fertility rate ([4]; 1,009 ng/L measured, 21 d): 86 ± 3.6%
- Mortality ([4]; 1,009 ng/L measured, 21 d): 0.0%
- Mortality, number of dead fish ([4]; 1,009 ng/L measured, 21 d): 0
- SSC female (joint plates with papillary processes) ([4]; 1,009 ng/L measured, 21 d): 0 ± 0
- SSC male (joint plates with papillary processes) ([4]; 1,009 ng/L measured, 21 d): 85 ± 18
- Hepatic VTG, female [4, 6]: 1994 ± 1,480 ng/mg‐liver
- Hepatic VTG, male [4, 6]: 5,429 ± 687 ng/mg‐liver
- Number of total eggs (per female per day) ([4]; 1,009 ng/L measured, 21 d, sig. ↓ vs control): 10 ± 2.0
- Fecundity, number of total eggs (in words) ([4]; 21 d): statistically significant decrease
- LOEC, elevated hepatic VTG in males ([4]; 21 d): 272 ng/L
- LOECREPRO ([4]; LOEC on reproduction (fecundity and/or fertility)): 1.009 µg/L
- minimal effective concentration ([4]; Oryzias latipes, 504 h, read-out: LOECmVTG): 0.000272 µg/mL
- Fertility rate (in words) ([4]; chemicals with significant decrease of number of total eggs): no significant effect
- LOECREPRO (reduction in fecundity or fertility) ([4]; concentrations without overt toxicity): 1.009 µg/L
- LOECTOX ([4]; lowest observed effect concentration on mortality): ND (>1.009) μg/L
- GSI Female ([4]; measured concentration 29 ng/L): 10.7 ± 1.4%
- GSI Male ([4]; measured concentration 29 ng/L): 1.15 ± 0.31%
- HSI Female ([4]; measured concentration 29 ng/L): 5.4 ± 0.61%
- HSI Male ([4]; measured concentration 29 ng/L): 2.0 ± 0.28%
- Length Female ([4]; measured concentration 29 ng/L): 33.8 ± 1.0 mm
- Length Male ([4]; measured concentration 29 ng/L): 35.8 ± 1.7 mm
- Weight Female ([4]; measured concentration 29 ng/L): 454 ± 56 mg
- Weight Male ([4]; measured concentration 29 ng/L): 468 ± 85 mg
- GSI Female [4, 7]: 11.2 ± 1.8%
- GSI Male [4, 7]: 1.17 ± 0.27%
- HSI Female [4, 7]: 5.5 ± 0.77%
- HSI Male [4, 7]: 2.1 ± 0.54%
- Length Female [4, 7]: 34.3 ± 1.6 mm
- Length Male [4, 7]: 36.5 ± 1.2 mm
- Weight Female [4, 7]: 460 ± 86 mg
- Weight Male [4, 7]: 481 ± 44 mg
- GSI Female [4, 8]: 11.3 ± 1.0%
- GSI Male [4, 8]: 0.84 ± 0.32%
- HSI Female [4, 8]: 6.0 ± 0.76%
- HSI Male [4, 8]: 2.7 ± 0.38%
- Length Female [4, 8]: 34.0 ± 1.0 mm
- Length Male [4, 8]: 36.5 ± 1.3 mm
- Weight Female [4, 8]: 417 ± 41 mg
- Weight Male [4, 8]: 464 ± 62 mg
- GSI Female [4, 9]: 11.4 ± 7.1%
- GSI Male [4, 9]: 0.48 ± 0.23%
- HSI Female [4, 9]: 5.1 ± 1.24%
- HSI Male [4, 9]: 3.5 ± 0.50%
- Length Female [4, 9]: 34.2 ± 2.1 mm
- Length Male [4, 9]: 35.9 ± 1.4 mm
- Weight Female [4, 9]: 443 ± 97 mg
- Weight Male [4, 9]: 468 ± 54 mg
- Agonistic activity (medaka ARβ (mArβ) [5]): NE (MAC = 1.0 × 10^−5 M)
